From US20150011484A1, “PRODRUGS OF D-GAMMA-GLUTAMYL-D-TRYPTOPHAN AND D-GAMMA-GLUTAMYL-L-TRYPTOPHAN” (APOTEX TECHNOLOGIES, INC., priority 2011, published 2015)
Values belong to the compound of their own block, whether it stands above or below them.

Key:
[1] = Distribution coefficient determination, D7.4 (1-octanol / MOPS buffer pH 7.4); format: physicochemical
Experimental: MOPS buffer (50 mM, pH=7.4) and 1-octanol were used as the aqueous phase and the organic phase, respectively. The MOPS buffer and 1-octanol were mixed, and pre-saturated with each other prior to use.
In a typical experiment, an aqueous solution of Apo848 hydrochloride salt (H-D-Glu(D-Trp-O-isoamyl)-O-isoamy HCl) was prepared by weighing out 2 mg of the compound into a 5-mL volumetric flask, followed by addition of MOPS buffer (50 mM, pH=7.4) to volume. The resulting mixture was sonicated and vortexed to ensure complete dissolution. The resulting solution was analyzed by HPLC (Column: XTerra MS C18, […], 4.6×250 mm; Mobile phase: A=4 mM Tris, 2 mM EDTA, pH 7.4 aqueous, B=acetonitrile; Gradient method: time in minutes—B in %:0-5, 15-55, 25-55, 25.05-5, 30-5; Flow rate: 1 mL/min; Injection volume=2 μL; detector wavelength: 282 nm) to obtain the peak height (Haqu^l).
One mL of this aqueous solution was pipetted out into another 10-mL test-tube and mixed with 1 mL of 1-octanol. The mixture was vortexed for 1 hour, then centrifuged at 4000 rpm for 15 minutes. The two phases were separated. Both the aqueous phase and the organic phase were analyzed by HPLC to obtain the peak heights, Haqu^F and Horg^F. The distribution coefficient, D7.4, was calculated using one or both the following equations: D7.4=(Haqu^l−Haqu^F)/Haqu^F, or D7.4=Horg^F/Haqu^F.

human hepatocytes = assay: Biotransformation studies in human cryopreserved hepatocytes; format: in vitro ADME; conditions: for Bioconversion to Apo805 in human hepatocytes: in 3 h, 100 μM, cryopreserved human hepatocytes
Experimental: LiverPool® cryopreserved human hepatocytes (pooled from 10 male donors) was obtained from Celsis In Vitro Technologies. The hepatocytes were stored in liquid nitrogen until used. Just before the assay, the hepatocytes were quickly thawed at 37° C. and centrifuged at 100×g for 10 min. The media was removed and cells were re-suspended in PBS at a density of 4×10^6 cells/mL.
The compound of Formula I (100 μM) was incubated with 0.1×10^6 hepatocytes in 50 μL volume. […] The “time 0” sample was generated by adding TCA before the test compound. After brief vortexing and 10-min incubation on ice, samples were centrifuged (16,000×g, 10 min) and the supernatants were analyzed by HPLC with UV detection.
HPLC analysis of pro-drugs in SGF, SIF, plasma and hepatocytes samples: HPLC analysis was done using an Agilent 1100 series HPLC system consisting of a programmable multi-channel pump, auto-injector, vacuum degasser and HP detector controlled by Agilent HPLC218 Chem Station Rev.A.09.03 software for data acquisition and analysis. A gradient method was used for the determination of all pro-drugs and their hydrolysis products including Apo805 on an Agilent Eclipse XDB, C18 column (part #963967-902, 150×4.6 mm, 3.5 μm) with the following chromatographic conditions: • Temperature: Ambient • Mobile phase: A=Aqueous phase: 10 mM Tris-HCl, 2 mM EDTA, pH 7.4 • B=Organic phase: Acetonitrile • Gradient method: Time: 0 min 5% B, 25 min 50% B, 35 min 80% B, 45 min 5% B, 50 min 5% B. • Mobile phase flow rate: 1.0 mL/min • Injection volume: 50 μL • Data acquisition time: 30 min • Detection wavelength: 280 nm; 4 nm bandwidth, ref. 360 nm, 4 nm bandwidth
The chromatograms at λ=280 nm were analyzed. Peak area (mAU*s) was used for quantitation of pro-drugs, intermediates and H-D-Glu(D-Trp-OH)—OH (Apo805).

[2] = Pharmacokinetic studies in rats (oral bioavailability); format: in vivo, male Sprague-Dawley rats
Experimental: Groups of five male Sprague-Dawley rats weighing 250 to 300 g were utilized per dosing group. One day prior to dosing, venous and arterial catheters (made of 20 cm long polyurethane coiled tubing, and filled with 100 units/mL heparinized saline) were implanted into the jugular vein and carotid artery of each rat. Rats were fasted overnight prior to oral dosing and fed approximately 2 hours post-dosing. All dosing and blood sampling was performed on fully conscious rats. Tested compounds were administered either by oral gavage as solutions in water, or by intravenous injection (Apo805K1 only) as solution in 0.9% sodium chloride, final pH 7.0, at doses equivalent to 5 mg/kg (per Apo805 content). Blood (0.3 mL) was sampled from each animal from the carotid artery for up to 30 hours post-dosing, each sampling followed by an equivalent naive-blood replacement. The blood sample was immediately centrifuged (4300×g for 5 minutes at 4° C.), and frozen at −80° C. until LC/MS/MS analysis.
Metanol (200 μL) was added to plasma samples (50 μL) to precipitate plasma proteins. After brief vortexing and centrifugation, the supernatant (200 uL) was removed and dried at 40° C. under a stream if nitrogen. The sample was reconstituted in water (300 μL) and 25 μL was injected for analysis.
A Sciex API 365 LC/MS/MS spectrophotometer equipped with Ionics EP10+ and HSID, was used. A chiral column (Supelco-Astec CHIROBIOTIC™ TAG), 100×2.1 mm, 5 μm was used at ambient temperature. The mobile phase consisted of 0.1% formic acid in water (A) and 0.1% formic acid in acetonitrile (B) in a ratio of 88:12(A:B; v/v) and the flow rate was 0.6 mL/min. Positive ion electrospray ionization (ESI+) in MRM mode was used for analysis. Samples were analysed for the concentration of Apo805.
Absolute oral bioavailability of pro-drugs Apo848, a compound of Formula IA wherein G=T=isoamyl) was compared to that of Apo805K1 (potassium salt of H-D-Glu(D-Trp-OH)—OH) in male Sprague-Dawley rats. Adult animals, five per group, were dosed orally with 5 mg/kg Apo805K1, Apo848, or Apo838 and intravenously with 5 mg/kg Apo805K1.
Non-compartmental analysis was performed using WinNonlin 5.2 software, on individual animal data. Bioavailability was calculated as a ratio of AUCINF—D after oral dosing of test compound to AUCINF—D after IV dosing of Apo805K1.

[3] = Conversion of prodrug to Apo805 in rat blood; format: in vitro ADME
[4] = Caco-2 cell permeability evaluation; format: in vitro ADME; conditions: human; caco-2, 50 μM, HBSS pH 7.4, 37° C.; read-out: apparent permeability (Papp)
Experimental: Human intestinal absorbtion potential of a compound of Formula I was estimated in caco-2 cells permeability assay.
Caco-2 cells obtained originally from ATCC were seeded onto 0.9-cm^2 PET filter (Becton Dickinson) at a density of 90000 cells/insert. Culture conditions were maintained for 21-28 days in 20% fetal bovine serum containing eagle's minimum essential medium enriched with non-essential amino acids. Integrity of the cell monolayers was evaluated via measurement of Lucifer Yellow paracellular apparent permeability coefficient (Papp).
Prior to the addition of a test compound, growth medium was removed and monolayer was rinsed twice with Hank's balanced salt solution (HBSS) at 37° C. The filter inserts containing the cell monolayers were transferred to a separate 12-well cell culture plate containing HBSS or solution of the test compound in the bottom chamber. […] For every experiment, the test compound solution was added to the top (apical-to-basolateral transport, A>B) or bottom (basolateral-to-apical transport, B>A) chamber and its appearance in the opposite chamber over time was monitored. […] Samples were analyzed by LC-MS/MS. In case of prodrugs which undergo partial hydrolysis during the experiment, the samples were analyzed for the concentration of the prodrug and all hydrolysis products. […]

log D7.4 compared with Apo805 ([1]; more lipophilic than Apo805): higher
Bioconversion to Apo805 in human hepatocytes (human hepatocytes): 30%
Apo805 formed in human cryopreserved hepatocyte (human hepatocytes; over a period of 4 hours): 31%
SMILES: COC(=O)[C@@H](Cc1c[nH]c2ccccc12)NC(=O)CC[C@@H](N)C(=O)OCc1ccccc1 [Apo804, H-D-Glu(D-Trp-OMe)-O—CH2Ph]

Log D7.4 ([1]; pH 7.4, 1-octanol/MOPS buffer): −3.22
SMILES: N[C@H](CCC(=O)N[C@H](Cc1c[nH]c2ccccc12)C(=O)O)C(=O)O [Apo805, D-gamma-glutamyl-D-tryptophan]

Absolute oral bioavailability (AUC oral / AUC intravenous Apo805K1; Apo805 measured in plasma) ([2]; rats, oral 5 mg/kg): 12%
SMILES: N[C@H](CCC(=O)N[C@H](Cc1c[nH]c2ccccc12)C(=O)[O-])C(=O)[O-].[H+].[K+] [Apo805K1, potassium salt of H-D-Glu(D-Trp-OH)—OH, reference compound]

Log D7.4 ([1]; pH 7.4, 1-octanol/MOPS buffer): 0.57
Bioconversion to Apo805 in human hepatocytes (human hepatocytes): 30% in 3 h
SMILES: COC(=O)[C@H](N)CCC(=O)N[C@H](Cc1c[nH]c2ccccc12)C(=O)OC [Apo840, H-D-Glu(D-Trp-O—Me)—O—Me, reference compound]

SMILES: CC(C)CCOC(=O)[C@H](N)CCC(=O)N[C@H](Cc1c[nH]c2ccccc12)C(=O)OCCC(C)C.Cl [Apo848, 3-methylbutyl (2R)-2-amino-5-{[(2R)-3-(1H-indol-3-yl)-1-(3-methylbutoxy)-1-oxopropan-2-yl]amino}-5-oxopentanoate hydrochloride]
improvement of the log D value of H-D-Glu(D-Trp-OH)—OH ([1]; diisoamyl ester versus parent drug): more than 10^5 fold
Log D7.4 ([1]; pH 7.4, 1-octanol/MOPS buffer): 2.1
distribution coefficient D7.4 ([1]; pH 7.4, 1-octanol/MOPS buffer): 127
logD ([1]; pH 7.4, 1-octanol/MOPS buffer, read-out: Log D7.4): 2.1
Absolute oral bioavailability (AUC oral / AUC intravenous Apo805K1; Apo805 measured in plasma) ([2]; male, Sprague-Dawley, rat, in vivo, 5 mg/kg): 48%
oral bioavailability compared with Apo805 ([2]; rat, in vivo, po): enhanced
oral exposure compared with H-D-Glu(D-Trp-OH)—OH ([2]; rat, in vivo, po): improved
conversion to Apo805 in rat blood [3]: instantaneously converted
Papp at 120 min, 50 μM [4]: 28.7 nm/s

Log D7.4 ([1]; pH 7.4, 1-octanol/MOPS buffer): −0.89
SMILES: COC(=O)[C@@H](Cc1c[nH]c2ccccc12)NC(=O)CC[C@@H](N)C(=O)O [H-D-Glu(D-Trp-OMe)-OH, reference compound]
